Active and inactive are the calls of the source. The calls are words filed in the database; no cut-off is given here.
Assays:
MDA-MB-231 [1] = assay: Down regulation of PD-L1 expression in human MDA-MB-231 cells incubated for 24 hrs by Western blot analysis; type: functional, cell-based; conditions: dose 0.5-2.5 µM
MDA-MB-231 [2] = assay: Induction of ferroptosis in human MDA-MB-231 cells assessed as increase in intracellular LPO accumulation by measuring green fluorescence intensity at 0.1 uM preincubated with compound for 2 hrs followed by light irradiation with 660 nm 20 mW/cm2 for 10 mins and measured after 12 hrs; type: functional, cell-based; conditions: time 850.0 min
MDA-MB-231 [3] = assay: Induction of pyroptosis in human MDA-MB-231 cells assessed as increase in GSDME-N expression at 0.25 uM preincubated with compound for 2 hrs followed by light irradiation with 660 nm 20 mW/cm2 for 10 mins and measured after 24 hrs by Western blot analysis; type: functional, cell-based; conditions: time 1570.0 min
[4] = molecular target: T1, Bromodomain-containing protein 4 (Homo sapiens, UniProt O60885); assay: Inhibition of BRD4 in human MDA-MB-231 cells assessed as downregulation of c-Myc expression at 0.5 to 2.5 uM incubated for 24 hrs by Western blot analysis; type: cell-based; conditions: dose 0.5-2.5 µM
[5] = Toxicity in BALB/c mouse implanted with mouse 4T1 cells assessed as heart damage at 2.5 mg/kg, iv measured after 14 days by H and E staining based analysis; type: organism-based; conditions: in vivo, 336 h, time 14 day
4T1 [6] = assay: Antitumor activity against mouse 4T1 cells implanted in female BALB/c mouse assessed as increase in CD8+ T cells at 2.5 mg/kg, iv preincubated with compound for 3 hrs followed by light irradiation with 660 nm 300 mW/cm2 for 3 min and measured after 14 days; type: functional, organism-based; conditions: time 20343.0 min
[7] = Phototoxicity against human MDA-MB-231 cells assessed as reduction in cell viability preincubated with compound for 2 hrs followed by light irradiation with 660 nm 20 mW/cm2 for 10 mins and measured after 24 hrs by CCK-8 assay; type: functional, cell-based; conditions: MDA-MB-231, light or radiation study
[8] = Induction of singlet oxygen production in PBS buffer assessed as decrease in absorption signal at 410 nm under light irradiation with 660 nm 20 mW/cm2 by ABDA based microplate reader analysis relative to control; type: functional
[9] = Toxicity in BALB/c mouse implanted with mouse 4T1 cells assessed as liver damage at 2.5 mg/kg, iv measured after 14 days by H and E staining based analysis; type: organism-based; conditions: in vivo, 336 h, time 14 day
MDA-MB-231 [10] = assay: Induction of autophagy in human MDA-MB-231 cells assessed as increase in ratio of LC3-II to LC3-I preincubated with compound for 2 hrs followed by light irradiation with 660 nm 20 mW/cm2 for 10 mins and measured after 12 hrs by Western blot analysis; type: functional, cell-based; conditions: time 850.0 min
MDA-MB-231 [11] = assay: Induction of DNA damage in human MDA-MB-231 cells assessed as upregulation of gamma-H2AX expression preincubated with compound for 2 hrs followed by light irradiation with 660 nm 20 mW/cm2 for 10 mins and measured after 24 hrs by Western blot analysis; type: functional, cell-based; conditions: time 1570.0 min
MDA-MB-231 [12] = assay: Cytotoxicity against human MDA-MB-231 cells assessed as reduction in cell viability upto 10 uM incubated for 24 hrs by CCK-8 assay; type: functional, cell-based
MDA-MB-231 [13] = assay: Induction of pyroptosis in human MDA-MB-231 cells assessed as increase in cleaved caspase -3 expression at 0.1 uM preincubated with compound for 2 hrs followed by light irradiation with 660 nm 20 mW/cm2 for 10 mins and measured after 24 hrs by Western blot analysis; type: functional, cell-based; conditions: time 1570.0 min
MDA-MB-231 [14] = assay: Induction of pyroptosis in human MDA-MB-231 cells assessed as cell swelling at 0.25 uM preincubated with compound for 2 hrs followed by light irradiation with 660 nm 20 mW/cm2 for 10 mins and measured after 24 hrs by CLSM imaging analysis; type: functional, cell-based; conditions: time 1570.0 min
MDA-MB-231 [15] = assay: Induction of ferroptosis in human MDA-MB-231 cells assessed as reduction in GPX4 expression at 0.1 uM preincubated with compound for 2 hrs followed by light irradiation with 660 nm 20 mW/cm2 for 10 mins and measured after 12 hrs by Western blot analysis; type: functional, cell-based; conditions: time 850.0 min
MDA-MB-231 [16] = assay: Induction of ferroptosis in human MDA-MB-231 cells assessed as decrease in GSH level at 0.1 uM preincubated with compound for 2 hrs followed by light irradiation with 660 nm 20 mW/cm2 for 10 mins and measured after 12 hrs; type: functional, cell-based; conditions: time 850.0 min
[17] = Biodistribution in female BALB/c mouse tumor at 2.5 mg/kg, iv measured at 1 hr; type: ADME, organism-based, Neoplasm; conditions: in vivo
MDA-MB-231 [18] = assay: Induction of pyroptosis in human MDA-MB-231 cells assessed as effect on cleaved GSDMD expression at 0.1 uM preincubated with compound for 2 hrs followed by light irradiation with 660 nm 20 mW/cm2 for 10 mins and measured after 24 hrs by Western blot analysis; type: functional, cell-based; conditions: time 1570.0 min
[19] = Drug uptake in human MDA-MB-231 cells assessed as increase in fluorescence intensity at 2.5 uM measured after 2 hrs by flow cytometry analysis; type: ADME, cell-based; conditions: mda-mb-231, 2 h
[20] = Toxicity in BALB/c mouse implanted with mouse 4T1 cells assessed as kidney damage at 2.5 mg/kg, iv measured after 14 days by H and E staining based analysis; type: organism-based; conditions: in vivo, 336 h, time 14 day
MDA-MB-231 [21] = assay: […] in human MDA-MB-231 cells assessed as decrease in RAD51 expression preincubated with compound for 2 hrs followed by light irradiation with 660 nm 20 mW/cm2 for 10 mins and measured after 24 hrs by Western blot analysis; type: functional, cell-based; conditions: time 1570.0 min
MDA-MB-231 [22] = assay: Induction of cell death in human MDA-MB-231 cells assessed as increase in bright red signal at 0.5 uM preincubated with compound for 2 hrs followed by light irradiation with 660 nm 20 mW/cm2 for 10 mins and measured after 12 hrs by Calcein-AM staining based inverted fluorescence microscopic analysis; type: functional; conditions: time 850.0 min
MDA-MB-231 [23] = assay: Induction of cell death in human MDA-MB-231 cells assessed as increase in HMGB1 release in nucleus by immunofluorescence staining based analysis; type: functional
[24] = Photophysical property of the compound assessed as maximum fluorescent emission peak at by fluorescence at 10 uM spectrophotometric analysis; type: physicochemical
MDA-MB-231 [25] = assay: Induction of ROS production in human MDA-MB-231 cells assessed as increase in green fluorescent intensity at 0.1 uM preincubated with compound for 2 hrs followed by light irradiation for 10 mins in presence of NaN3 by DCFH-DA probe based flow cytometry; type: functional, cell-based; conditions: time 130.0 min
MDA-MB-231 [26] = assay: Effect on LDH level in human MDA-MB-231 cells preincubated with compound for 2 hrs followed by light irradiation with 660 nm 20 mW/cm2 for 10 mins and measured after 24 hrs; type: functional, cell-based; conditions: time 1570.0 min
MDA-MB-231 [27] = assay: Induction of ROS production in human MDA-MB-231 cells assessed as increase in green fluorescent intensity at 0.1 uM preincubated with compound for 2 hrs followed by light irradiation for 10 mins by DCFH-DA probe based flow cytometry; type: functional, cell-based; conditions: time 130.0 min
[28] = Biodistribution in female BALB/c mouse tumor at 2.5 mg/kg, iv measured at 3 hrs; type: ADME, organism-based, Neoplasm; conditions: in vivo
4T1 [29] = assay: Antitumor activity against mouse 4T1 cells implanted in female BALB/c mouse assessed as increase in CD4+ T cells at 2.5 mg/kg, iv preincubated with compound for 3 hrs followed by light irradiation with 660 nm 300 mW/cm2 for 3 min and measured after 14 days; type: functional, organism-based; conditions: time 20343.0 min
MDA-MB-231 [30] = assay: Effect on IL-1beta level in human MDA-MB-231 cells preincubated with compound for 2 hrs followed by light irradiation with 660 nm 20 mW/cm2 for 10 mins and measured after 24 hrs by ELISA analysis; type: functional, cell-based; conditions: time 1570.0 min
[31] = Toxicity in BALB/c mouse implanted with mouse 4T1 cells assessed as spleen damage at 2.5 mg/kg, iv measured after 14 days by H and E staining based analysis; type: organism-based; conditions: in vivo, 336 h, time 14 day
[32] = Toxicity in BALB/c mouse implanted with mouse 4T1 cells at 2.5 mg/kg, iv; type: organism-based; conditions: in vivo
MDA-MB-231 [33] = assay: Induction of pyroptosis in human MDA-MB-231 cells assessed as formation of large bubbles on plasma membrane at 0.25 uM preincubated with compound for 2 hrs followed by light irradiation with 660 nm 20 mW/cm2 for 10 mins and measured after 24 hrs by CLSM imaging analysis; type: functional, cell-based; conditions: time 1570.0 min
[34] = molecular target: T1, Bromodomain-containing protein 4; assay: Inhibition of BRD4 (unknown origin) incubated for 120 mins by TR-FRET assay
4T1 [35] = assay: Antitumor activity against mouse 4T1 cells implanted in female BALB/c mouse assessed as increase in T cell infiltration at 2.5 mg/kg, iv preincubated with compound for 3 hrs followed by light irradiation with 660 nm 300 mW/cm2 for 3 min and measured after 14 days; type: functional, organism-based; conditions: time 20343.0 min
MDA-MB-231 [36] = assay: Induction of autophagy in human MDA-MB-231 cells assessed as downregulation p62 expression preincubated with compound for 2 hrs followed by light irradiation with 660 nm 20 mW/cm2 for 10 mins and measured after 24 hrs by Western blot analysis; type: functional, cell-based; conditions: time 1570.0 min
MDA-MB-231 [37] = assay: Induction of ROS production in human MDA-MB-231 cells assessed as increase in green fluorescent intensity at 0.1 uM preincubated with compound for 2 hrs followed by light irradiation for 10 mins in presence of tiron by DCFH-DA probe based flow cytometry; type: functional, cell-based; conditions: time 130.0 min
MDA-MB-231 [38] = assay: Induction of pyroptosis in human MDA-MB-231 cells assessed as effect on caspase-1 expression at 0.1 uM preincubated with compound for 2 hrs followed by light irradiation with 660 nm 20 mW/cm2 for 10 mins and measured after 24 hrs by Western blot analysis; type: functional, cell-based; conditions: time 1570.0 min
[39] = Induction of ROS generation in PBS buffer assessed as increase in superoxide anion radical level by measuring increase in DHR123 fluorescence intensity at 5 uM irradiated with 660 nm 20 mW/cm2 light for upto 7 mins by DHR123 probe based fluorescence spectra analysis; type: functional
4T1 [40] = assay: Antitumor activity against mouse 4T1 cells implanted in female BALB/c mouse assessed as inhibition of tumor growth at 2.5 mg/kg, iv; type: functional, organism-based
4T1 [41] = assay: Antitumor activity against mouse 4T1 cells implanted in female BALB/c mouse assessed as inhibition of tumor growth at 2.5 mg/kg, iv preincubated with compound for 3 hrs followed by light irradiation with 660 nm 300 mW/cm2 for 3 min and measured after 14 days; type: functional, organism-based; conditions: time 20343.0 min
MDA-MB-231 [42] = assay: Down regulation of PD-L1 expression in human MDA-MB-231 cells at 0.1 uM preincubated with compound for 2 hrs followed by light irradiation with 660 nm 20 mW/cm2 for 10 mins and measured after 24 hrs by Western blot analysis; type: functional, cell-based; conditions: time 1570.0 min

For `CCN(CC)c1ccc2nc3c(cc(NCc4ccc(NC(=O)C[C@H]5N=C(c6ccc(Cl)cc6)c6c(sc(C)c6C)-n6c(C)nnc65)cc4)c4ccccc43)[s+]c2c1.[Cl-]`, the Activity (MDA-MB-231 [1]) was “Dose-dependent-effect”, the Activity (MDA-MB-231 [2]) was “Active” and the Activity (MDA-MB-231 [3]) was “Active”. The inhibition [4] was “Active”, the Activity [5] was “Non-toxic” and the Activity (4T1 [6]) was “Active”. For the same compound, the IC50 [7] was 110 nM, the Activity [8] was “Active” and the Activity [9] was “Non-toxic”. For the same compound, the Activity (MDA-MB-231 [10]) was “Active”, the Activity (MDA-MB-231 [11]) was “Active” and the Activity (MDA-MB-231 [12]) was “Active”. For the same compound, the Activity (MDA-MB-231 [13]) was “Active”, the Activity (MDA-MB-231 [14]) was “Active” and the Activity (MDA-MB-231 [15]) was “Active”. For the same compound, the Activity (MDA-MB-231 [16]) was “Active”, the Drug uptake [17] was “Active” and the Activity (MDA-MB-231 [18]) was “inactive”. The Drug uptake [19] was “Active”, the Activity [20] was “Non-toxic” and the Activity (MDA-MB-231 [21]) was “Active”. For the same compound, the Activity (MDA-MB-231 [22]) was “Active”, the Activity (MDA-MB-231 [23]) was “Active” and the Activity [24] was “Active”. The Activity (MDA-MB-231 [25]) was “inactive”, the Activity (MDA-MB-231 [26]) was “Active” and the Activity (MDA-MB-231 [27]) was “Active”. For the same compound, the Drug uptake [28] was “Active”, the Activity (4T1 [29]) was “Active” and the Activity (MDA-MB-231 [30]) was “Active”. For the same compound, the Activity [31] was “Non-toxic”, the Activity [32] was “Non-toxic” and the Activity (MDA-MB-231 [33]) was “Active”. For the same compound, the IC50 [34] was 45 nM, the Activity (4T1 [35]) was “Active” and the Activity (MDA-MB-231 [36]) was “Active”. For the same compound, the Activity (MDA-MB-231 [37]) was “Active”, the Activity (MDA-MB-231 [38]) was “inactive” and the Activity [39] was “Active”. The Activity (4T1 [40]) was “Active”, the Activity (4T1 [41]) was “Active” and the Activity (MDA-MB-231 [42]) was “Active”.
